# Results from patent US20180369203A1, “METHODS OF TREATING CANCER BY ADMINISTERING A MEK INHIBITOR IN COMBINATION WITH A PROTEASOME INHIBITOR” (The Jackson Laboratory, priority 2015, published 2018).
# Assays:
# [1] = system: A2058 cells; assay: Viable A2058 cells by CellTiter Blue with amyloid blockers plus inhibitors; type: cell-based, human; conditions: 10 μM ThT pre-incubation 6 hr, then inhibitors 24 hr
# Experimental: (§1) FIGS. 5A-Y show MEK and proteasome inhibition provoke protein aggregation and amyloidogenesis. (A-B) WM115 cells treated with 20 nM AZD6244, 100 nM Bortezomib, or both for 24 hr were stained with Lys48-specific ubiquitin antibodies. Arrowheads mark ubiquitin-positive aggregates. Scale bar: 10 μm. Amounts of aggregates per cell were quantitated using ImageJ (median, n≥100, ANOVA). (C-F) Following transfection with polyQ79 plasmids alone or with both polyQ79 and HSF1^S326D plasmids for one day, HEK293T cells were treated with inhibitors as described in (A-B). Cells were either analyzed for aggregate size or stained with 10 μM ThT. (G) Treated tumor cell lines were stained with 10 μM ThT. Geometric means were used to calculate fold changes in ThT fluorescence intensity and the log 2(FC) values were presented as a heat map. […] Following treatments, AOs were quantitated by ELISA using A11 antibodies (mean±SD, n=3, ANOVA). (I) Intrinsic AOs were detected in human tumor cell lines (mean±SD, n=3, ANOVA). […] Amyloids were quantitated by ELISA (mean±SD, n=3, Student's t-test). […] AF formation was monitored by ThT binding (mean±SD, n=3, ANOVA). […] Amyloids were quantitated (mean±SD, n=3, Student's t-test). […] Viable cells were quantitated by CellTiter® blue (mean±SD, n=6, Student's t-test). […] Viable cells were quantitated (mean±SD, n=6, ANOVA). […]
# This figure is related to FIG. 5. […] (C) Quantitation of protein aggregate size. […]
# [2] = system: A2058 cells; assay: Amyloid quantitation by ELISA in A2058 cells pre-incubated with ThT; type: cell-based, human; conditions: 10 μM ThT pre-incubation 6 hr, then inhibitors 24 hr
# Experimental: as §1
# To quantitate amyloid fibrils, detergent-insoluble proteins were extracted. […]
structure (smiles),measurement,setting,value
"Cc1ccc2c(c1)sc(-c1ccc(N(C)C)cc1)[n+]2C.[Cl-] [ThT, Thioflavin T]",improvement of cellular growth and survival,[1],50%
same,amyloid induction by inhibitors,[2],suppressed
